Laboratory results: ChEMBL document CHEMBL1158713, “Anthecotulide: purification, analytical data, absence from chamomile preparations, stability and reactivity, and anti-infective testing” (J Nat Prod, 2005)
Calls of active or inactive are those of the source.

Legend:
Type in all cases: functional, organism-based
[1] = test system: Staphylococcus aureus; test: Antimicrobial activity against Staphylococcus aureus at < 10 ug/ml
[2] = test system: Pseudomonas aeruginosa; test: Antimicrobial activity against Pseudomonas aeruginosa at < 10 ug/ml
[3] = test system: Staphylococcus aureus; test: Antimicrobial activity against methicillin-resistant Staphylococcus aureus at < 10 ug/ml
[4] = test system: Escherichia coli; test: Antimicrobial activity against Escherichia coli at < 10 ug/ml
[5] = test system: Enterococcus faecium; test: Antimicrobial activity against vancomycin-resistant Enterococcus faecium at < 10 ug/ml
[6] = test system: Enterococcus faecalis; test: Antimicrobial activity against Enterococcus faecalis at < 10 ug/ml

Measured: Activity

C=C1C(=O)OCC1C/C=C(\C)CC(=O)C=C(C)C (stereo unspecified)
inactive: all assays above
